Experimental data: US20120015923A1, “USE OF ANDROGRAPHOLIDE COMPOUNDS FOR TREATING INFLAMMATION AND AIRWAY DISORDERS” (NATIONAL UNIVERSITY OF SINGAPORE, priority 2009, published 2012)

Experiments:
[1] = tested on: IL-6, IL-8 and RANTES mRNA in normal human bronchial epithelial cells; assay: TNF-α-induced cytokine mRNA expression in normal human bronchial epithelial cells; format: cell-based; settings: 10 ng/ml TNF-α for 12 hours; 30 μM
Method: To determine the effects of andrograhpolide on OVA-specific immune responses in lymphocytes, thoracic lymph node cells were grown in bronchial epithelial bulletkit medium (Cambrex BioScience, Walkersvile, Md., USA), supplemented with bovine pituitary extract (2 ml), hydrocortisone (0.5 ml), recombinant human EGF (0.5 ml), epinephrine (0.5 ml), transferrin (0.5 ml), insulin (0.5 ml), retinoic acid (0.5 ml), triiodothyronine (0.5 ml), gentamycin sulfate (50 μg/ml), and amphotericin B (50 ng/ml). The cells were incubated in 5% CO2 incubator at 37° C., and subcultured at 80% to 85% confluency. Cells were exposed to 200 μg/ml OVA for 72 hours. Concanavalin A (Con A, 10 μug/ml) was used as a positive control. Supernatants from parallel triplicate cultures were analyzed for cytokine levels by ELISA. Normal human bronchial epithelial cells were cultured in optimized bronchial epithelial bulletkit medium with supplements (Lonza, Basel, Switzerland). Cells were pretreated with 30 μM andrographolide or vehicle (0.01% DMSO) 4 hours before stimulation with 10 ng/ml tumor necrosis factor (TNF)-α. Total and nuclear proteins, and mRNA were extracted from cells at specified time intervals.
(§1) PCR amplifications were then performed using the multiwell thermal cycler on 1 μl cDNA template in a 25 μl reaction volume. The reaction volume contained 10.5 μl nuclease-free water, 0.5 μl forward primer (10 μM), 0.5 μl reverse primer (10 μM) and 12.5 μl 2×PCR master mix (50 units/ml TaqDNA polymerase, 400 μM dATP, 400 μM dGTP, 400 μM dCTP, 400 μM dTTP and 3 mM MgCl2).

OVA-induced AHR = assay: Airway hyper-responsiveness (AHR) to intravenous methacholine; format: in vivo, BALB/c mice; settings: 1 mg/kg; for OVA-induced airway hyperresponsiveness (AHR) to methacholine: OVA-challenged mice
Method: Mice were anesthetized and tracheotomy was performed as described above. The internal jugular vein was cannulated and connected to a microsyringe for intravenous methacholine administration. Airway resistance (RI) and dynamic compliance (Cdyn) in response to increasing concentrations of mechacholine were recorded using a whole body plethysmograph chamber (Buxco, Sharon, Conn.) and ventilated mechanically by a ventilator via the tube that was inserted into the trachea at a tidal volume of 200 μl/breadth and a breathing rate of 150/min. Airflow and pressure changes were detected by respective transducers, recorded and analyzed by Biosystem XA software (Buxco, Sharon, Conn., USA). Results are expressed as a percentage of the respective basal values in response to phosphate buffered saline (PBS).

[2] = tested on: inflammatory gene expression in lung tissues; assay: Pulmonary mRNA expression of inflammatory markers (RT-PCR); format: in vivo, BALB/c mice; settings: lungs 24 hours after last OVA aerosol
Method: Lungs were isolated from the thoracic cavity 24 hours after the last OVA or saline challenge, and stored in RNAlater. The samples were first incubated at […] overnight for the RNAlater to permeate into the lung tissues to stabilize the RNA. The samples were then stored at −80° C. Before RNA isolation, lung tissues were thawed at […] They were then removed from the RNAlater and immersed in 1 ml Trizol solution. Then, homogenization was performed using a homogenizer (SilentCrusher M, Heidolph Elektro GmbH & Co., Kelheim, Genman). All samples were placed on ice to prevent RNA degradation. The homogenates were then centrifuged at 12,000 g for 10 min at 4° C. The clear RNA containing supernatant was then decanted, incubated for 5 min in room temperature, and 0.2 ml of chloroform was added. All tubes were shaken vigorously for 15 seconds and incubated at room temperature for 3 minutes before being centrifuged at 12,000 g for 15 min at 4° C. About 500 μl of the colourless upper aqueous layer containing RNA, was decanted. 0.5 ml of isopropanol was added and mixed for 30 sec, before being incubated at room temperature for 10 minutes. The tubes were then centrifuged at 12000 rpm for 15 min at 4° C. The supernatant was discarded and 1 ml of 75% ethanol was added to the RNA pellet. Centrifugation at 8500 rpm for 5 minutes at 4° C. was then performed to wash the pellet. The supernatant was again discarded and the washed RNA pellet was air-dried at room temperature for 10 min. The dried RNA pellet was dissolved in 100 μl of ribonuclease-free DEPC water and incubated at 55° C. for 10 minutes. The amount and purity of RNA present in the sample was quantified using the spectrophotometer (NanoDrop ND-1000 from Thermo Risher
Reverse transcription was performed to synthesize single-stranded complementary DNA (cDNA) templates from the RNA extracted. Volume containing 1 μg total RNA was calculated based on the nucleic acid concentration measured from the spectrophotometer, and was topped up to 20 μl with DEPC water. 10.58 μl of master mix was then added to each sample. Then, cDNA was synthesized from 1 μg of RNA using a multiwall thermal cycler (GeneAmp PCR system 2700 from Applied Biosystems, Foster City, Calif., USA) by bringing the reaction volume to 95° C. for 10 minutes and 42° C. for 30 minutes.
as §1

[3] = OVA-challenged, mechanically ventilated mice

Row | SMILES | TNF-α-induced up-regulation of IL-6 mRNA expression [1] | TNF-α-induced up-regulation of IL-8 mRNA expression [1] | TNF-α-induced up-regulation of RANTES mRNA expression [1] | OVA-induced airway hyperresponsiveness (AHR) to methacholine (OVA-induced AHR) | ICAM-1 gene expression in lung [2] | VCAM-1 gene expression in lung [2] | YM1 gene expression in lung [2] | inducible nitric oxide synthase mRNA expression in lung tissues [2] | AMCase mRNA expression in lung tissues ([2]; DDAG 1 mg/kg) | E-selectin mRNA expression in lung tissues ([2]; DDAG 1 mg/kg) | Muc5ac mRNA expression in lung tissues ([2]; DDAG 1 mg/kg) | YKL-40 mRNA expression in lung tissues ([2]; DDAG 1 mg/kg) | Ym2 mRNA expression in lung tissues ([2]; DDAG 1 mg/kg) | dynamic compliance (Cdyn) in response to methacholine (OVA-induced AHR; [3]) | lung resistance (RI) in response to methacholine (OVA-induced AHR; [3]) | COX2 mRNA expression in lung tissues ([2]; DDAG 1 mg/kg) | IL-17 mRNA expression in lung tissues ([2]; DDAG 1 mg/kg) | IL-33 mRNA expression in lung tissues ([2]; DDAG 1 mg/kg)
1 | C=C1CC[C@@H]2[C@](C)(CO)[C@H](O)CC[C@@]2(C)[C@@H]1C/C=C1/C(=O)OC[C@H]1O [Andrographolide] | noticeably blocked | noticeably blocked | noticeably blocked | blocked | inhibition | inhibition | inhibition | attenuated | markedly down-regulated | attenuated | attenuated | markedly down-regulated | markedly down-regulated |  |  |  |  | 
2 | C=C1CCC2C(C)(CO)C(O)CCC2(C)C1C=CC1=CCOC1=O (stereo not shown) [DDAG, 14-Deoxy-11,12-didehydroandrographolide] |  |  | strongly suppressed | significantly inhibited |  |  |  |  | strong suppression | strong suppression | strong suppression | strong suppression | strong suppression | restored | dramatically reduced | strong suppression | strong suppression | strong suppression
